Data on eight molecules can be found in ChEMBL document CHEMBL1201862, “PubChem BioAssay data set” (2004).

Among the test systems are COLO 205; HL-60; HOP-62; HT-29; KM12; MCF7; MOLT-4; OVCAR-3; OVCAR-5; PC-3; RXF 393; SK-MEL-28; SK-MEL-2; SK-MEL-5; SW-620; UACC-257; UACC-62; LOX IMVI; SF-539; SNB-19.
Common to all, as to experiment: growth of human tumour cells (NCI), 48 h

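Interpolation was linear, between the two tested concentrations surrounding the appropriate level; five concentrations were tested over 48 hours in 96-well plates. At the GI50, growth is halved.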 Calls of active or inactive are those of the source. No stated cut-off is given here; in the data, active = GI50 up to about 1.1 µM and inactive = higher.

For `O=c1[nH]c2ccccc2n1CCCN1CCC(n2c(=O)[nH]c3cc(Cl)ccc32)CC1` [DOMPERIDONE], the GI50 with COLO 205 is 12.7 µM (inactive); in the test with HL-60 it was 17.3 µM (inactive); in the test on HOP-62 it was 18.3 µM (inactive); with HT-29, 14.6 µM (inactive); with KM12, 16.9 µM (inactive); with MCF7 it was 18 µM (inactive). Moreover, the GI50 with MOLT-4 was 13.9 µM (inactive); with OVCAR-3 it was 17.9 µM (inactive); with OVCAR-5, 20.2 µM (inactive); with PC-3 it was 19.4 µM (inactive); in the test on RXF 393, 16 µM (inactive); in the test on SK-MEL-28, 17 µM (inactive). Besides, the GI50 was 19.2 µM (inactive) with SK-MEL-2; 14.6 µM (inactive) in the test with SK-MEL-5; 17.3 µM (inactive) in the test on SW-620; 16.9 µM (inactive) with UACC-257; 18.3 µM (inactive) in the test on UACC-62.

For the molecule `CCOC(=O)CCC(NC(=O)c1ccc(Nc2nc3cc(C(F)(F)F)ccc3nc2C(=O)OCC)cc1)C(=O)OCC` (stereo unspecified), the GI50 in the test with COLO 205 was 4.14 µM (inactive); in the test on HL-60 it was > 100 µM (inactive); with HOP-62 it was 14 µM (inactive); with HT-29, 4.18 µM (inactive); in the test with KM12, > 10 µM (inactive); in the test on LOX IMVI it was 16.8 µM (inactive). Besides, the GI50 with MCF7 was > 10 µM (inactive); in the test on MOLT-4, > 100 µM (inactive); with OVCAR-3, 13.8 µM (inactive); with OVCAR-5 it was 16.6 µM (inactive); with PC-3, 9.55 µM (inactive); in the test with SF-539, 12.6 µM (inactive). Besides, the GI50 in the test on SK-MEL-28 is 12.1 µM (inactive); with SK-MEL-2, 14.1 µM (inactive); in the test on SK-MEL-5, 23.9 µM (inactive); in the test with SNB-19, 10.7 µM (inactive); in the test on SW-620, 18.6 µM (inactive); in the test with UACC-257 it was 11 µM (inactive). Moreover, the GI50 in the test on UACC-62 was 9.16 µM (inactive).

For `OCC1OC(OCC(O)C(O)C(O)C(/C=N/Nc2ccccc2)=N/Nc2ccccc2)C(O)C(O)C1O` (stereo unspecified), the GI50 in the test with COLO 205 was 44.6 µM (inactive); in the test on HL-60 it was > 100 µM (inactive); with HOP-62 it was > 100 µM (inactive); in the test with HT-29 it was > 100 µM (inactive); in the test on KM12, > 100 µM (inactive); in the test with LOX IMVI it was 13.2 µM (inactive). Moreover, the GI50 in the test on MCF7 is 63.1 µM (inactive); in the test with MOLT-4 it was > 100 µM (inactive); in the test on OVCAR-3 it was > 100 µM (inactive); in the test on OVCAR-5 it was > 100 µM (inactive); with PC-3, > 100 µM (inactive); with SF-539, 79.3 µM (inactive). The GI50 with SK-MEL-28, with SK-MEL-5, with SNB-19, with SW-620 and in the test with UACC-257 was > 100 µM (inactive) in each case.

As to `C[C@H]1C(=O)O[C@@H]2CCN3CC=C(COC(=O)[C@](C)(O)[C@@]1(C)O)[C@H]23`, the GI50 in the test with COLO 205, in the test on HL-60, in the test with HOP-62, in the test with HT-29, in the test with KM12 and in the test on LOX IMVI was > 100 µM (inactive) each time. Moreover, the GI50 in the test with MCF7, in the test on MOLT-4, in the test on OVCAR-3, in the test on OVCAR-5, in the test on PC-3 and in the test on SF-539 was > 100 µM (inactive) throughout. In addition, the GI50 in the test with SK-MEL-28, with SK-MEL-2, with SK-MEL-5, in the test on SNB-19, in the test on SW-620 and with UACC-257 was > 100 µM (inactive) in each case. The GI50 in the test on UACC-62 was > 100 µM (inactive).

`CCOP(=O)(OCC)C(Cc1ccc(OC)c(OC)c1)N=C(c1ccccc1)c1ccccc1` (stereo unspecified): the GI50 in the test on COLO 205 is 18.9 µM (inactive); with HL-60 it was 31.3 µM (inactive); with HT-29, 36.8 µM (inactive); in the test on KM12, 36.4 µM (inactive); with MCF7, 24.7 µM (inactive); in the test with OVCAR-3 it was 34.4 µM (inactive). Besides, the GI50 in the test on OVCAR-5 was 70.5 µM (inactive); in the test with PC-3 it was 32.4 µM (inactive); in the test on RXF 393, 61.4 µM (inactive); in the test with SF-539, 75 µM (inactive); in the test with SK-MEL-28 it was 45.3 µM (inactive); in the test with SK-MEL-5, 23.4 µM (inactive). Also, the GI50 was 63 µM (inactive) in the test with SNB-19, 47.6 µM (inactive) in the test on SW-620, 56.8 µM (inactive) in the test with UACC-257 and 68.7 µM (inactive) in the test with UACC-62.

For `COc1ccc(OC)c2c1C(=O)C(Cl)=C(N1CCN(CCOCCO)CC1)C2=O`, the GI50 with COLO 205 was > 10 µM (inactive); in the test with HL-60, 1.08 µM (active); in the test on HOP-62 it was 5.07 µM (inactive); in the test with HT-29, 6 µM (inactive); in the test on KM12, 20.5 µM (inactive); in the test with MCF7 it was 6.12 µM (inactive). For the same molecule, the GI50 is 4.32 µM (inactive) with MOLT-4; 17.3 µM (inactive) with OVCAR-3; 21 µM (inactive) in the test with OVCAR-5; 6.37 µM (inactive) in the test with PC-3; 19 µM (inactive) in the test on RXF 393; 17.8 µM (inactive) in the test with SF-539. Besides, the GI50 in the test on SK-MEL-28 was 16.1 µM (inactive); in the test with SK-MEL-5, 16.5 µM (inactive); with SNB-19, 16 µM (inactive); in the test with SW-620, 8.85 µM (inactive); with UACC-257 it was 17.3 µM (inactive); in the test with UACC-62, 10.5 µM (inactive).

On to `C/C1=C\[C@@H](C)C[C@@H](C)OC(=O)[C@@H](C)NC(=O)[C@H](Cc2ccc(O)c(Br)c2)N(C)C(=O)CNC(=O)[C@H](C)C1`, for which the GI50 with COLO 205 is < 0.01 µM (active); in the test on HL-60 it was < 0.01 µM (active); with HOP-62, < 0.01 µM (active); in the test on HT-29, < 0.01 µM (active); in the test with LOX IMVI, < 0.01 µM (active); in the test with MCF7, 0.182 µM (active). Further, the GI50 in the test on MOLT-4 is 0.143 µM (active); with OVCAR-3, < 0.01 µM (active); with OVCAR-5, 13 µM (inactive); with PC-3, < 0.01 µM (active); in the test on RXF 393, < 0.0184 µM (active); in the test on SF-539, < 0.01 µM (active). Also, the GI50 in the test on SK-MEL-28 is 0.0284 µM (active); in the test on SK-MEL-5, < 0.01 µM (active); in the test with SNB-19, 0.295 µM (active); in the test with SW-620, < 0.01 µM (active); in the test on UACC-257 it was < 0.01 µM (active).

As for `Nc1nccc2c1ncn2[C@H]1C[C@H](O)[C@@H](CO)O1`, the GI50 in the test with COLO 205, in the test with HOP-62, in the test with HT-29, in the test with KM12, with LOX IMVI and in the test with MCF7 was > 100 µM (inactive) in each case. Further, the GI50 with MOLT-4, with OVCAR-3, in the test with OVCAR-5, in the test on PC-3, with RXF 393 and with SK-MEL-28 was > 100 µM (inactive) in each case. Moreover, the GI50 in the test on SK-MEL-2, with SK-MEL-5, with SNB-19, with SW-620, with UACC-257 and in the test on UACC-62 was > 100 µM (inactive) each time.
